Assay results from paper PMC7154665, “Triple‐Helix‐Stabilizing Effects in Collagen Model Peptides Containing PPII‐Helix‐Preorganized Diproline Modules” (Angewandte Chemie (International Ed. in English), 2020).

Experiments:
HSP47 = molecular target: T1, HSP47 (Canis lupus familiaris, UniProt A0A8I3N7V2); test: HSP47 binding by biolayer interferometry (BLI); set-up: species or system canine; settings: Table S7; BLI curve fitting; KD = koff/kon; errors by propagation of uncertainty; read-out: KD (with error)
T1 construct: coding for residues 36LSP…RDEL418; inferred from Ni-NTA purification with imidazole elution; made in house; host or cells: E. coli BL21 (DE3)
T1 sequence (A0A8I3N7V2 36-418): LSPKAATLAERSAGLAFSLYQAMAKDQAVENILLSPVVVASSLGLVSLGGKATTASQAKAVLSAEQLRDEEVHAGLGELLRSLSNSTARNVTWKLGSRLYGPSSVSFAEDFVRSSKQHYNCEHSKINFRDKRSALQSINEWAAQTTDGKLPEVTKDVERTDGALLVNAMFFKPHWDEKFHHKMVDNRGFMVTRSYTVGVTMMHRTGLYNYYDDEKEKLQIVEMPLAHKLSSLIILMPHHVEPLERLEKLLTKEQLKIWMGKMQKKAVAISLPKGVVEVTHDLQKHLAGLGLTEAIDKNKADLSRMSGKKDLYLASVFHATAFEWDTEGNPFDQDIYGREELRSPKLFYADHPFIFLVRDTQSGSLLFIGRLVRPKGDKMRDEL
From the text: (1 picture or pasted object on this page, not shown here) […]

[1] = CD thermal denaturation of collagen model peptide triple helices (transition temperature); assay type: physicochemical; settings: for T m (figure legends and text) / T m of the corresponding CMPs: CD denaturation at 225 nm; for T m (figure legends and text): PBS-buffer, 12 °C h-1 heating rate, * substitution-site altered, ** arginine-free peptides; for T m of the corresponding CMPs: Table 2, CMP Ac‐(PPG)5‐PRG‐PPG‐[XY]G‐(PPG)3‐NH2, PBS, 12 °C h-1; for T m: triple-helix transition temperature, CD ellipticity at 225 nm, 60 µM peptide in PBS (10 mM Na2HPO4, 10 mM NaH2PO4, 150 mM NaCl, pH 7.0), 4 to 70 °C, heating rate 12 °C h-1, two-state fit, error ±1 °C
Procedure: For all prepared model peptides, CD spectra were recorded in phosphate‐buffered saline (after incubation for […] at 4 °C). […] The curves were fitted to assess triple‐helical stability by the transition temperature (T m, ±1 °C error) in a standardized fashion (see Table 1 and the Supporting Information). Selected denaturation curves are depicted in Figure 4.
CD spectra and Thermal Denaturation Experiments
Experimental setup - Vacuum-dried peptides were dissolved in phosphate-buffered saline (10 mM Na2HPO4, 10 mM NaH2PO4,
150 mM NaCl, pH = 7.0) and the solutions (60 µM peptide) were incubated at 4 °C for at least 48 h for trimerization. CD
measurements were performed on a Jasco J-715 spectropolarimeter using a quartz cuvette (Hellma Analytics, 1 mm path length) and
To study thermal transitions the ellipticity at 225 nm was monitored while increasing the temperature from 4 to
70 °C at a rather slow heating rate of 12 °C h-1 which was controlled electronically (Jasco PTC-348 WI Peltier element). According to
the literature this heating rate still corresponds to non-equilibrium conditions, however, the generated data can be used for internal
Data interpretation - For Tm-determination a two-state-model was employed in which three peptide chains combine to a triple helix
assuming a previously reported mathematical model (vide infra).[7][8] Constants were set (c = 0.00006, R = 8.31) and auxiliary
variables (P, U, V, K) were used to describe the temperature dependence of the folded fraction F. Thermal transition curves were
fitted by optimizing the parameters θmin, θmax, ΔH, and Tm using the Generalized Reduced Gradient algorithm implemented in the
solver tool of MS Excel.[9]. An error of ±1.0 °C was estimated for the resulting Tm values by repeating denaturation experiments.

| Compound | T m (figure legends and text) [1] | T m [1] | further results |
| --- | --- | --- | --- |
| N=C(N)NCCC[C@H](NC(=O)[C@@H]1CCCN1C(=O)CNC(=O)[C@@H]1CCCN1C(=O)[C@@H]1CCCN1C(=O)CNC(=O)[C@@H]1CCCN1C(=O)[C@@H]1CCCN1C(=O)CNC(=O)[C@@H]1CCCN1C(=O)[C@@H]1CCCN1C(=O)CNC(=O)[C@@H]1CCCN1C(=O)[C@@H]1CCCN1C(=O)CNC(=O)[C@@H]1CCCN1C(=O)[C@@H]1CCCN1C(=O)CCC(=O)NCCOCCOCCNC(=O)CCCC[C@@H]1SC[C@@H]2NC(=O)N[C@@H]21)C(=O)NCC(=O)N1CCC[C@H]1C(=O)N1CCC[C@H]1C(=O)NCC(=O)N1CCC[C@H]1C(=O)N1CCC[C@H]1C(=O)NCC(=O)N1CCC[C@H]1C(=O)N1CCC[C@H]1C(=O)NCC(=O)N1CCC[C@H]1C(=O)N1CCC[C@H]1C(=O)NCC(=O)N1CCC[C@H]1C(=O)N1CCC[C@H]1C(=O)NCC(N)=O [PP] |  |  | Kd (HSP47): 370.3 ± 1.8 nM |
| COC(=O)[C@@H]1CC(O)CN1C(=O)[C@@H]1CCCN1C(C)=O (stereo partly drawn) [ProHyp] | 49.8 °C |  | T m of the corresponding CMPs [1]: 49.8 °C |
| Ac-PPG-PPG-PPG-PPG-PPG-PPG-PPG-PPG-PPG-PPG-PPG-NH2 [ProPro**] | 45.9 °C |  |  |
| Ac-PPG-PPG-PPG-PPG-PPG-PPG-PPG-[H2ProM2]G-PPG-PPG-PPG-NH2 [H2-ProM2**] | 44.4 °C |  |  |
| Ac-PPG-PPG-PPG-PPG-PPG-PRG-PPG-OOG-PPG-PPG-PPG-NH2 [HypHyp] | 46.9 °C |  |  |
| Ac-PPG-PPG-PPG-PPG-PPG-PRG-PPG-OPG-PPG-PPG-PPG-NH2 [HypPro] | 44.0 °C |  |  |
| Ac‐(EtO)2‐ProM1‐OMe | 44 °C |  | T m of the corresponding CMPs [1]: 44.5 °C |
| Ac‐(EtO)2‐ProM2‐OMe |  |  | T m of the corresponding CMPs [1]: 38.9 °C; ΔT m ([1]; with regard to the non‐functionalized system (ProM2 series)): −6 °C |
| Ac‐(PPG)3‐H2‐ProM2G‐PPG‐PRG‐(PPG)5‐NH2 [Entry 15] |  | 44.6 °C |  |
| Ac‐(PPG)3‐ProM1G‐PPG‐PRG‐(PPG)5‐NH2 [Entry 14] |  | 40.5 °C |  |
| Ac‐(PPG)5‐PRG‐PPG‐(EtO)2‐ProM1G‐(PPG)3‐NH2 [Entry 8] | 44.5 °C | 44.5 °C |  |
| Ac‐(PPG)5‐PRG‐PPG‐(EtO)2‐ProM2G‐(PPG)3‐NH2 [Entry 13] | 38.9 °C | 38.9 °C |  |
| Ac‐(PPG)5‐PRG‐PPG‐(HO)2‐ProM2G‐(PPG)3‐NH2 [Entry 11] | 37.9 °C | 37.9 °C |  |
| Ac‐(PPG)5‐PRG‐PPG‐(MeO)2‐ProM1G‐(PPG)3‐NH2 [Entry 7] | 43.6 °C | 43.6 °C |  |
| Ac‐(PPG)5‐PRG‐PPG‐(MeO)2‐ProM2G‐(PPG)3‐NH2 [Entry 12] | 40.2 °C | 40.2 °C |  |
| Ac‐(PPG)5‐PRG‐PPG‐HO‐ProM1G‐(PPG)3‐NH2 [Entry 5] | 43.0 °C | 43.0 °C |  |
| Ac‐(PPG)5‐PRG‐PPG‐ProHypG‐(PPG)3‐NH2 [Entry 2] |  | 49.8 °C |  |
| Ac‐(PPG)5‐PRG‐PPG‐ProM1G‐(PPG)3‐NH2 [Entry 3] |  | 39.3 °C |  |
| Ac‐ProM1‐OMe | 39.3 °C |  | T m of the corresponding CMPs [1]: 39.3 °C; ΔT m ([1]; in comparison to reference peptide Ac‐(PPG)5‐PRG‐(PPG)5‐NH2): −6 °C |
